# Patent US5994334A, “Androgen synthesis inhibitors” (priority 1997, dated 1999)
# Entries after “also recorded” stand apart in the source; their conditions may differ. Like-named read-outs stand apart in the source and are kept apart here.
# How the values were obtained:
# [1] = molecular target: T1, Human Prostatic 5α-Reductase (Homo sapiens, UniProt P31213); assay: Inhibition of human prostatic 5α-reductase (prostatic microsomes, [3H]testosterone); conditions: for inhibition at 0.01 µM: read-out: % Inhibition of 5α-reductase, [I] 10 nM; for inhibition at 0.1 µM: read-out: % Inhibition of 5α-reductase, [I] 100 nM
# T1 sequence (P31213 1-254): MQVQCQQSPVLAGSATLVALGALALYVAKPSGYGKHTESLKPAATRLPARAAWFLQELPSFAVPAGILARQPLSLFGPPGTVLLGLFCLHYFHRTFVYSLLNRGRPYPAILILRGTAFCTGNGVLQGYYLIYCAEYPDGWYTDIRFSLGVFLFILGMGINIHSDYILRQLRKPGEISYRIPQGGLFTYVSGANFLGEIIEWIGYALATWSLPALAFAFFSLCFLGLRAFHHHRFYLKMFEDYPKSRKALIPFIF
# [2] = molecular target: T2, Human Testicular C17,20-lyase (Homo sapiens, UniProt P05093); assay: Inhibition of human testicular C17,20-lyase (pregnenolone substrate, testicular microsomes); type: biochemical; conditions: for inhibition at 0.1 µM: read-out: % Inhibition C17,20-lyase, [I] = 100 nM; for inhibition at 0.4 µM: read-out: % Inhibition C17,20-lyase, [I] = 400 nM
# T2 construct: incubating human testicular microsomes; from tissue; host or cells: human testis, microsomes
# T2 sequence (P05093 1-508): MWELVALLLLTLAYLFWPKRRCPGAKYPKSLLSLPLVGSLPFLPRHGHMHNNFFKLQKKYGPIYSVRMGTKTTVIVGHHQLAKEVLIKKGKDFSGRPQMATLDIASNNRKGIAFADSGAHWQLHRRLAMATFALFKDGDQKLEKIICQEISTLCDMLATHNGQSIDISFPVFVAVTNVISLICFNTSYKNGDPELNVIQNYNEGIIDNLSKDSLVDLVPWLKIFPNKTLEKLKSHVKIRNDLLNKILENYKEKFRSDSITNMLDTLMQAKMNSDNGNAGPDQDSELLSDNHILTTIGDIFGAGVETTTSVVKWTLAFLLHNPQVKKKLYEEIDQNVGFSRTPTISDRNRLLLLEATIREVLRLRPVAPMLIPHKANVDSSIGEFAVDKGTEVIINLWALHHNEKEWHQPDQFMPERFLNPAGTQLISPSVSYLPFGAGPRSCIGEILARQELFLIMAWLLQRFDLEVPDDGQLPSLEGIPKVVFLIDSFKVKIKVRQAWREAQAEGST
# Description: (§1) The conversion of radiolabeled pregnenolone to 17α-hydroxypregnenolone and DHEA by 17α-hydroxylase/C17,20 -lyase was measured by incubating human testicular microsomes with different concentration of test compounds. Reverse phase HPLC was used to separate and accurately quantify the amount of substrate and metabolites. The 17α-hydroxylase and C17,20 -lyase activities were calculated separately. The activity of 17α-hydroxylase was calculated from the conversion of pregnenolone to 17α-hydroxypregnenolone and DHEA and the activity of C17,20 -lyase was based on the conversion of pregnenolone to DHEA. Although 17α-hydroxypregnenolone is the substrate converted to DHEA by C17,20 -lyase, it has been reported that this 17α-hydroxy intermediate is not released from the enzyme binding site during conversion (Nakajin et al., 1981a,b). Also, there are species differences in substrate requirements. Pregnenolone is the natural substrate rather than progesterone for human testicular 17α-hydroxylase and C17,20 -lyase. Therefore, pregnenolone was used as substrate for measuring the activity of this enzyme complex.
# [3] = molecular target: T3, Human Testicular 17α-Hydroxylase (Homo sapiens, UniProt P05093); assay: Inhibition of human testicular 17α-hydroxylase (pregnenolone substrate, testicular microsomes); type: biochemical; conditions: for inhibition at 0.1 µM: read-out: % Inhibition 17α-hydroxylase, [I] = 100 nM; for inhibition at 0.4 µM: read-out: % Inhibition 17α-hydroxylase, [I] = 400 nM
# T3 construct: incubating human testicular microsomes; from tissue; host or cells: human testis, microsomes
# T3 sequence (P05093 1-508): T2 sequence (P05093 1-508)
# Description: as §1
# [4] = molecular target: T4, human 17α-hydroxylase/C17,20-lyase (Homo sapiens, UniProt P05093); assay: Inhibition of human testicular 17α-hydroxylase/C17,20-lyase (enzyme complex as a whole); type: biochemical
# T4 construct: incubating human testicular microsomes; from tissue; host or cells: human testis, microsomes
# T4 sequence (P05093 1-508): T2 sequence (P05093 1-508)
# Description: as §1
# [5] = Table 1, NI = no inhibition, CI = complete inhibition, read-out: IC50 C17,20 lyase
# [6] = Table 1, NI = no inhibition, read-out: IC50 17α-OHase
# [7] = IC50 5α-reductase, Table 3, NI = no inhibition
# [8] = second figure of pair, read-out: IC50 C17,20-lyase
# [9] = Table 3, first figure of 17α-hydroxylase/lyase pair, read-out: IC50 17α-hydroxylase
# [10] = first figure of pair, read-out: IC50 17α-hydroxylase
smiles,measurement,setting,value
C[C@]12CC[C@H]3[C@@H](CC=C4C[C@@H](O)CC[C@@]43C)[C@@H]1CC[C@@H]2[C@@]1(C)CO1 [Compound I-8],inhibition at 0.01 µM,[1],11.8%
same,inhibition at 0.1 µM,[1],16.3%
same,IC50,[2]; [5],140 nM
same,IC50,[3]; [6],110 nM
same,"inhibition of 17α-hydroxylase/C17,20-lyase (in words)",[4]; NI = no inhibition,significant inhibition
C[C@H](N)[C@H]1CC[C@H]2[C@@H]3CC=C4C[C@@H](O)CC[C@]4(C)[C@H]3CC[C@]12C [Compound I-10],IC50,[2]; [5],8000 nM
same,IC50,[3]; [6],9800 nM
same,"inhibition of 17α-hydroxylase/C17,20-lyase (in words)",[4]; NI = no inhibition,poor inhibition
CC(=O)[C@@]1(Br)CC[C@H]2[C@@H]3CC=C4C[C@@H](O)CC[C@]4(C)[C@H]3CC[C@@]21C [Compound I-11],IC50,[2]; [5],970 nM
same,IC50,[3]; [6],1300 nM
same,"inhibition of 17α-hydroxylase/C17,20-lyase (in words)",[4]; NI = no inhibition,poor inhibition
CC(=O)[C@@]12O[C@@H]1C[C@H]1[C@@H]3CC=C4C[C@@H](O)CC[C@]4(C)[C@H]3CC[C@@]12C [Compound I-17],IC50,[2]; [5],680 nM
same,IC50,[3]; [6],440 nM
same,"inhibition of 17α-hydroxylase/C17,20-lyase (in words)",[4]; NI = no inhibition,decreased potency
C[C@@H](O)[C@H]1CC[C@H]2[C@@H]3CC=C4C[C@@H](O)CC[C@]4(C)[C@H]3CC[C@]12C [Compound I-20],inhibition of 5α-reductase (in words),[1]; NI = no inhibition,neither showed activity against 5α-reductase
same,IC50,"[2]; IC50 C17,20 lyase",190 nM
same,IC50,[3]; IC50 17α-OHase,180 nM
same,"inhibition of 17α-hydroxylase/C17,20-lyase (in words)",[4]; NI = no inhibition,potent inhibition
CC(=O)O[C@H]1CC[C@@]2(C)C(=CC[C@@H]3[C@@H]2CC[C@]2(C)C(C(C)=O)=CC[C@@H]32)C1 [Compound I-37],IC50,"[2]; read-out: IC50 C17,20 lyase",1710 nM
same,IC50,[3]; read-out: IC50 17α-OHase,1890 nM
same,"inhibition of 17α-hydroxylase/C17,20-lyase (in words)",[4]; NI = no inhibition,less activity than the 3-hydroxy compound
CN(C=O)[C@H]1CC[C@H]2[C@@H]3CCC4=CC(=O)CC[C@]4(C)[C@H]3CC[C@]12C [Compound I-40],IC50,"[1]; IC50 5α-reductase, Table 2",150 nM
same,IC50,[2]; [5],680 nM
same,IC50,[3]; [6],760 nM
same,fold lower inhibition than I-16,[4]; vs I-16,approximately 4 fold
CC(=NO)[C@H]1CC[C@H]2[C@@H]3CCC4=CC(=NO)CC[C@]4(C)[C@H]3CC[C@]12C [Compound I-42],inhibition of 5α-reductase (in words),[1]; NI = no inhibition,decreased activity
same,IC50,"[1]; read-out: IC50 5α-reductase, Table 2",2060 nM
same,IC50,[2]; [5],220 nM
same,IC50,[3]; [6],210 nM
same,"inhibition of 17α-hydroxylase/C17,20-lyase (in words)",[4]; NI = no inhibition,decreased activity
C[C@H](c1c[nH]cn1)[C@H]1CC[C@H]2[C@@H]3CCC4=CC(=O)CC[C@]4(C)[C@H]3CC[C@]12C [Compound I-45],IC50,[2]; [5],> 30000 nM
same,IC50,[3]; [6],> 30000 nM
same,"inhibition of 17α-hydroxylase/C17,20-lyase (in words)",[4]; NI = no inhibition,did not show any activity
C[C@]12CC[C@H]3[C@@H](CC=C4C[C@@H](O)CC[C@@]43C)[C@@H]1CC[C@@H]2c1ncc[nH]1 [Compound L-1],inhibition at 0.1 µM,"[2]; 100 nM, second figure of pair",73.9%
same,inhibition at 0.4 µM,"[2]; 400 nM, second figure of pair",100%
same,inhibition at 0.1 µM,"[3]; 100 nM, first figure of pair",22.8%
same,inhibition at 0.4 µM,"[3]; 400 nM, first figure of pair",23.7%
same,"inhibition of 17α-hydroxylase/C17,20-lyase (in words)",[4]; NI = no inhibition,"poor inhibition of 17α-hydroxylase/C17,20 -lyase"
"CC(=NO)C1=CC[C@H]2[C@@H]3CCC4=CC(=O)CC[C@]4(C)[C@H]3CC[C@]12C [Compound L-2, 16-dehydroprogesterone-20-oxime]",IC50,[1]; IC50 5α-reductase,52.5 nM
same,IC50,"[1]; IC50 5α-reductase, Table 2",52 nM
same,IC50,[1]; [7],52.5 nM
same,inhibition of 5α-reductase (in words),[1]; NI = no inhibition,potent inhibition of 5α-reductase; also recorded: potent inhibitor of human 5α-reductase
same,inhibition at 0.1 µM,[1],45.5%
same,times less potent than finasteride (5α-reductase),[1]; vs finasteride,4-6 times
same,IC50,[2]; [8],5 nM
same,IC50,[3]; [6],8.7 nM
same,IC50,[3]; [9],8.65 nM
same,IC50,[3]; [10],6 nM
same,"inhibition of 17α-hydroxylase/C17,20-lyase (in words)",[4]; NI = no inhibition,potent inhibitors of both enzymes
same,"stronger activity than I-5 against 17α-hydroxylase/C17,20-lyase",[4]; vs I-5,twofold stronger activity
same,times more potent than ketoconazole,[4]; vs ketoconazole,10-50 times
Cc1nc([C@H]2CC[C@H]3[C@@H]4CC=C5C[C@@H](O)CC[C@]5(C)[C@H]4CC[C@]23C)c[nH]1 [Compound L-4],inhibition at 0.1 µM,[2],70.2%
same,inhibition at 0.4 µM,[2],100%
same,inhibition at 0.1 µM,[3],13.8%
same,inhibition at 0.4 µM,[3],41.9%
same,IC50,[4]; one value for 17α-hydroxylase/lyase; NI = no inhibition; read-out: IC50 17α-hydroxylase/lyase (single entry),400 nM
Cc1nc([C@H]2CC[C@H]3[C@@H]4CC=C5C[C@@H](O)CC[C@]5(C)[C@H]4CC[C@]23C)co1 [Compound L-5],inhibition at 0.1 µM,"[2]; 100 nM, second figure of pair",71.2%
same,inhibition at 0.4 µM,"[2]; 400 nM, second figure of pair",81.7%
same,inhibition at 0.1 µM,"[3]; 100 nM, first figure of pair",22.4%
same,inhibition at 0.4 µM,"[3]; 400 nM, first figure of pair",26.5%
same,"inhibition of 17α-hydroxylase/C17,20-lyase (in words)",[4]; NI = no inhibition,less inhibition
"C[C@]12CCC(=O)C=C1CC[C@@H]1[C@@H]2CC[C@]2(C)C(c3c[nH]cn3)=CC[C@@H]12 [Compound L-6, 17β-(4'-imidazolyl)-androsta-4,16-dien-3-one]",IC50,[1]; IC50 5α-reductase,522 nM
same,IC50,"[1]; IC50 5α-reductase, Table 2",522 nM
same,IC50,[1]; [7],522 nM
same,inhibition of 5α-reductase (in words),[1]; NI = no inhibition,potent inhibitors; also recorded: potent inhibition of 5α-reductase
same,inhibition at 0.1 µM,[1],25.2%
same,IC50,[2]; [8],2 nM
same,IC50,[3]; [6],16 nM
same,IC50,[3]; [9],15.6 nM
same,IC50,[3]; [10],16 nM
same,"inhibition of 17α-hydroxylase/C17,20-lyase (in words)",[4]; NI = no inhibition,potent inhibitors
same,times more potent than ketoconazole,[4]; vs ketoconazole,10-50 times
C[C@@H](O)C1=CC[C@H]2[C@@H]3CC=C4C[C@@H](O)CC[C@]4(C)[C@H]3CC[C@]12C [Compound L-8],inhibition at 0.01 µM,[1],37.1%
same,inhibition at 0.1 µM,[2],66.2%
same,inhibition at 0.4 µM,[2],83.3%
same,inhibition at 0.4 µM,[3],82.7%
same,IC50,[4]; read-out: IC50 17α-hydroxylase/lyase (single entry); one value for 17α-hydroxylase/lyase; NI = no inhibition,100 nM
CC(=O)O[C@H]1CC[C@@]2(C)C(=CC[C@@H]3[C@@H]2CC[C@]2(C)C(c4c[nH]cn4)=CC[C@@H]32)C1 [Compound L-12],inhibition at 0.1 µM,"[2]; 100 nM, second figure of pair",82.1%
same,inhibition at 0.4 µM,"[2]; 400 nM, second figure of pair",97%
same,IC50,[2]; [5],25 nM
same,IC50,"[2]; Table 3, second figure of pair, CI = complete inhibition, read-out: IC50 lyase",24.8 nM
same,IC50,[2]; [8],25 nM
same,inhibition at 0.1 µM,"[3]; 100 nM, first figure of pair",62.4%
same,inhibition at 0.4 µM,"[3]; 400 nM, first figure of pair",89.3%
same,IC50,[3]; [6],75 nM
same,IC50,[3]; [9],74.6 nM
same,IC50,[3]; [10],75 nM
same,"inhibition of 17α-hydroxylase/C17,20-lyase (in words)",[4]; NI = no inhibition,lower potency than I-49; also recorded: weaker inhibitor than I-49
